Measured values taken from patent publication EP3421483A1, “NOVEL STEROIDAL 17-BETA HETEROARYL COMPOUNDS AS INHIBITORS OF AKR1C3” (Bayer Pharma Aktiengesellschaft, priority 2017, dated 2019).
Where “and” joins values, the source holds several entries; their conditions need not be identical. Equal entries are not always repeated.

target: T1, recombinant human AKR1C3 (aldo-keto reductase family 1 member C3) (Homo sapiens, UniProt P42330); experiment: AKR1C3 enzyme inhibition assay (fluorescence; NADPH-dependent reduction of coumberone to coumberol); assay type: biochemical; details: not given
T1 construct: GST (cleaved yes); made in house; host or cells: E. coli
T1 sequence (P42330 1-323): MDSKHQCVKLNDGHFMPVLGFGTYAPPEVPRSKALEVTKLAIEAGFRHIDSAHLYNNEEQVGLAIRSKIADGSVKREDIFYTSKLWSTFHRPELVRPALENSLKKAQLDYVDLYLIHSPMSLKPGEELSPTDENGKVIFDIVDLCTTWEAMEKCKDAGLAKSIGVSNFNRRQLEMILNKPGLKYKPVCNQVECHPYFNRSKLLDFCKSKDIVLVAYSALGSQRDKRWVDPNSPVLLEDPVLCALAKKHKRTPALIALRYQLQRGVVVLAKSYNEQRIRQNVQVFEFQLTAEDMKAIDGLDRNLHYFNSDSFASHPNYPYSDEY
Method: The AKR1C3-inhibitory action of the substances of this invention was measured in the AKR1C3 assay described in the paragraphs which follow. Essentially, the enzyme activity is measured by quantifying the coumberol formed from coumberone ([…]., and […]. AM. CHEM. SOC. 130, 14123-14128 (2008) […]., Bauman, D.R., Penning, T.M., and […]., Proc. Natl. Acad. Sci. USA 103, 13304 - 13309 (2006)). In this assay, the increase in the highly fluorescent coumberol can be determined by NADPH (nicotinamide adenine dinucleotide phosphate)-dependent reduction of the nonfluorescent coumberone by AKR1C3. […] NM_003739). This was expressed as the GST (glutathione S-transferase) fusion protein in E. coli and purified by means of glutathione-Sepharose affinity chromatography. The GST was removed by thrombin digestion with subsequent size exclusion chromatography (Dufort, I., Rheault, P., Huang, XF., Soucy, P., and Luu-The, V., Endocrinology 140, 568-574 (1999)). […] The concentration of the AKR1C3 was matched to the respective activity of the enzyme preparation and set such that the assay worked within the linear range. Typical concentrations were in the region of 1 nM. The reaction was stopped by adding 5 μl of a stop solution consisting of the inhibitor EM-1404 [F. Labrie et al. US Patent 6,541,463, 2003] (2 μM → final concentration in assay volume […] is 1 μM). Subsequently, the fluorescence of coumberol was measured at 520 nm (excitation at 380 nm) with a suitable measuring instrument (Pherastar from BMG Labtechnologies). […] As described, the pharmacological substances claimed were tested for their inhibitory effect on the AKR1C3 enzyme (see Table 3). […] Table 3: Inhibition of AKR1C3 by the inventive compounds (for some of the compounds, the values for two experimental determinations are reported)

SMILES | IC50
CC(C)(CNC(=O)c1ccc2c(c1)CC[C@@H]1[C@@H]2CC[C@]2(C)[C@@H](c3cncc(F)c3)CC[C@@H]12)C(=O)O [Example 5, 3-([[(17beta)-17-(5-fluoropyridin-3-yl)estra-1,3,5(10)-trien-3-yl]carbonyl}amino)-2,2-dimethylpropanoic acid] | 13.8 nM and 13.1 nM

same assay, conditions: 10 µM NADPH, 0.3 µM coumberone, 15 min preincubation, 90 min at 22°C, pH 7; 4-parameter fit; for some compounds two experimental determinations are given; read-out: AKR1C3 enzyme inhibition IC50

SMILES | IC50
C[C@]12CC[C@@H]3c4ccc(C(=O)NCC(=O)O)cc4CC[C@H]3[C@@H]1CC[C@@H]2c1cncc(F)c1 [Example 2, N-[[(17beta)-17-(5-fluoropyridin-3-yl)estra-1,3,5(10)-trien-3-yl]carbonyl}glycine] | 26.4 nM and 28.9 nM
C[C@]12CC[C@@H]3c4ccc(C(=O)NCCC(=O)O)cc4CC[C@H]3[C@@H]1CC[C@@H]2c1cncc(C(F)(F)F)c1 [Example 9, N-{[(17beta)-17-[5-(trifluoromethyl)pyridin-3-yl]estra-1,3,5(10)-trien-3-yl]carbonyl}-beta-alanine] | 16.9 nM and 26 nM
CN(CCC(=O)O)C(=O)c1ccc2c(c1)CC[C@H]1[C@@H]3[C@H](O)C[C@H](c4cncc(F)c4)[C@@]3(C)CC[C@H]21 [Example 11, N-{[(15beta,17beta)-17-(5-fluoropyridin-3-yl)-15-hydroxyestra-1,3,5(10)-trien-3-yl]carbonyl}-N-methyl-beta-alanine] | 22.4 nM
CN(CCC(=O)O)C(=O)c1ccc2c(c1)CC[C@H]1[C@@H]3[C@@H](O)C[C@H](c4cncc(F)c4)[C@@]3(C)CC[C@H]21 [Example 12, N-{[(15alpha,17beta)-17-(5-fluoropyridin-3-yl)-15-hydroxyestra-1,3,5(10)-trien-3-yl]carbonyl}-N-methyl-beta-alanine] | 188 nM

More lines, now with the values ahead:

IC50 | SMILES
19.2 nM and 23.7 nM | CN(CCC(=O)O)C(=O)c1ccc2c(c1)CC[C@@H]1[C@@H]2CC[C@]2(C)[C@@H](c3cncc(F)c3)CC[C@@H]12 [Example 1, N-{[(17beta)-17-(5-fluoropyridin-3-yl)estra-1,3,5(10)-trien-3-yl]carbonyl}-N-methyl-beta-alanine]
5.47 nM and 9.35 nM | C[C@]12CC[C@@H]3c4ccc(C(=O)NCCC(=O)O)cc4CC[C@H]3[C@@H]1CC[C@@H]2c1cncc(F)c1 [Example 3, N-{[(17beta)-17-(5-fluoropyridin-3-yl)estra-1,3,5(10)-trien-3-yl]carbonyl}-beta-alanine]
67.6 nM and 82.1 nM | COc1cncc([C@H]2CC[C@H]3[C@@H]4CCc5cc(C(=O)N(C)CCC(=O)O)ccc5[C@H]4CC[C@]23C)c1 [Example 6, N-{[(17beta)-17-(5-methoxypyridin-3-yl)estra-1,3,5(10)-trien-3-yl]carbonyl}-N-methyl-beta-alanine]
35 nM and 44.1 nM | CN(CCC(=O)O)C(=O)c1ccc2c(c1)CC[C@@H]1[C@@H]2CC[C@]2(C)[C@@H](c3cncc(C(F)(F)F)c3)CC[C@@H]12 [Example 7, N-methyl-N-{[(17beta)-17-[5-(trifluoromethyl)pyridin-3-yl]estra-1,3,5(10)-trien-3-yl]carbonyl}-beta-alanine]
48.5 nM and 76.2 nM | CN(CC(=O)O)C(=O)c1ccc2c(c1)CC[C@@H]1[C@@H]2CC[C@]2(C)[C@@H](c3cncc(C(F)(F)F)c3)CC[C@@H]12 [Example 8, N-methyl-N-[[(17beta)-17-[5-(trifluoromethyl)pyridin-3-yl]estra-1,3,5(10)-trien-3-yl]carbonyl}glycine]
271 nM and 282 nM | CN(CCC(=O)O)C(=O)c1ccc2c(c1)CC[C@@H]1[C@@H]2CC[C@]2(C)[C@@H](c3cncnc3)CC[C@@H]12 [Example 10, N-methyl-N-{[(17beta)-17-(pyrimidin-5-yl)estra-1,3,5(10)-trien-3-yl]carbonyl}-beta-alanine]

same assay, conditions: read-out: AKR1C3 enzyme inhibition IC50; 10 µM NADPH, 0.3 µM coumberone, 15 min preincubation, 90 min at 22°C, pH 7; 4-parameter fit; for some compounds two experimental determinations are given

SMILES | IC50
C[C@]12CC[C@@H]3c4ccc(C(=O)NCCCC(=O)O)cc4CC[C@H]3[C@@H]1CC[C@@H]2c1cncc(F)c1 [Example 4, 4-({[(17beta)-17-(5-fluoropyridin-3-yl)estra-1,3,5(10)-trien-3-yl]carbonyl}amino)butanoic acid] | 7.79 nM and 6.76 nM
